Holding throughout (assay type): biochemical
One test deals with T1, BTK (h) (Homo sapiens, UniProt Q06187).
T1 construct: purchased Eurofins
Briefly: Radioisotope labeling kinase assay (Eurofins), BTK. The following applies: 1 μM compound; read-out: Inhibitory activity per unit concentration/Activity % BTK (h). The method, then:
(§1) An activity to a human recombinant protein kinase of a series of compounds was determined by a radioisotope labeling method, which was provided by Eurofins Company. A compound to be detected was mixed with a corresponding protein kinase buffer (20 mM propyl sulfonate (MOPS, […].), 1 mM EDTA, 0.10 β-mercaptoethanol, 0.010 Brij-35, […], and 1 mg/mL BSA), the mixture was added into a reaction system (100 μM reaction substrate […], 8 mM MOPS with a pH value of 7.0, 10 mM MgAcetate, 0.2 mM EDTA, and a certain concentration of γ-^33P-ATP). After adding an MgATP composite solution, the reaction was started at room temperature for 40 minutes, and the reaction was terminated by adding 5 μl of […] solution. Then, 10 μl of reaction solution was dropwise added onto a filter and washed with 75 mM phosphoric acid solution for three times, 5 minutes each time, then washed with methanol once again, and dried and subjected to scintillation counting.

The target in the next test is T2, Flt3 (D835Y) (h) (Homo sapiens, UniProt P36888, D835Y).
T2 construct: purchased Eurofins
T2 sequence (P36888 27-993 D835Y): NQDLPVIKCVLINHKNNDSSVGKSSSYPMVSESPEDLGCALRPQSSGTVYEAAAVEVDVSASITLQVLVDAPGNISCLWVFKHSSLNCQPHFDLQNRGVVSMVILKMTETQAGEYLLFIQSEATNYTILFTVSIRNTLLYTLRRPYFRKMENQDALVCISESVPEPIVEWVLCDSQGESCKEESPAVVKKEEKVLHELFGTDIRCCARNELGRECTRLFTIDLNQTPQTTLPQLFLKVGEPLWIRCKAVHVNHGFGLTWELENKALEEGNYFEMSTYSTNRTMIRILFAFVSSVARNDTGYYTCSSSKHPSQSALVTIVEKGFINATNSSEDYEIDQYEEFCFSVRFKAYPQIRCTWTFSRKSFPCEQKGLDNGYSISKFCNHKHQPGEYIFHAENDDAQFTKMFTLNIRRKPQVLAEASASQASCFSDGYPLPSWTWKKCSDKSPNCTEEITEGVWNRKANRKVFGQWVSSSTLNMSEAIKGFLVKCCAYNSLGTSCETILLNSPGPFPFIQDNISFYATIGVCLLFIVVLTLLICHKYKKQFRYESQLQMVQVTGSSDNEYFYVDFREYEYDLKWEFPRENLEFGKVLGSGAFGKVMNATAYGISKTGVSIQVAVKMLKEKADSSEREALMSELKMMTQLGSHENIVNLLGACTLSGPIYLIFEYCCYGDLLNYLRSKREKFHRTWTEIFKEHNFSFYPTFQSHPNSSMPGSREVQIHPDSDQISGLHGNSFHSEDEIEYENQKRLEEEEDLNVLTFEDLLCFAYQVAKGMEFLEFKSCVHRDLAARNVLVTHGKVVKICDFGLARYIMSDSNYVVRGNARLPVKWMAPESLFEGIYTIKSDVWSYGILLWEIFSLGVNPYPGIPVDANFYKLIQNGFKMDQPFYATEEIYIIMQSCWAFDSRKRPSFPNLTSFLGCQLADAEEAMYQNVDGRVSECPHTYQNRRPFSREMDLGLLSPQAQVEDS
Put plainly: Radioisotope labeling kinase assay (Eurofins), Flt3 (D835Y). Conditions: 1 μM compound; read-out: Inhibitory activity per unit concentration/Activity % Flt3 (D835Y) (h). The protocol:
as §1

Another test deals with T3, Flt3 (h) (Homo sapiens, UniProt P36888).
T3 construct: purchased Eurofins
T3 sequence (P36888 27-993): T2 sequence (P36888 27-993 D835Y) with Y809D
Put plainly: Radioisotope labeling kinase assay (Eurofins), Flt3. Conditions: 1 μM compound; read-out: Inhibitory activity per unit concentration/Activity % Flt3 (h). The method, then:
as §1

In another test the target is T4, JAK3 (h) (Homo sapiens, UniProt P52333).
T4 construct: purchased Eurofins
T4 sequence (P52333 1-1124): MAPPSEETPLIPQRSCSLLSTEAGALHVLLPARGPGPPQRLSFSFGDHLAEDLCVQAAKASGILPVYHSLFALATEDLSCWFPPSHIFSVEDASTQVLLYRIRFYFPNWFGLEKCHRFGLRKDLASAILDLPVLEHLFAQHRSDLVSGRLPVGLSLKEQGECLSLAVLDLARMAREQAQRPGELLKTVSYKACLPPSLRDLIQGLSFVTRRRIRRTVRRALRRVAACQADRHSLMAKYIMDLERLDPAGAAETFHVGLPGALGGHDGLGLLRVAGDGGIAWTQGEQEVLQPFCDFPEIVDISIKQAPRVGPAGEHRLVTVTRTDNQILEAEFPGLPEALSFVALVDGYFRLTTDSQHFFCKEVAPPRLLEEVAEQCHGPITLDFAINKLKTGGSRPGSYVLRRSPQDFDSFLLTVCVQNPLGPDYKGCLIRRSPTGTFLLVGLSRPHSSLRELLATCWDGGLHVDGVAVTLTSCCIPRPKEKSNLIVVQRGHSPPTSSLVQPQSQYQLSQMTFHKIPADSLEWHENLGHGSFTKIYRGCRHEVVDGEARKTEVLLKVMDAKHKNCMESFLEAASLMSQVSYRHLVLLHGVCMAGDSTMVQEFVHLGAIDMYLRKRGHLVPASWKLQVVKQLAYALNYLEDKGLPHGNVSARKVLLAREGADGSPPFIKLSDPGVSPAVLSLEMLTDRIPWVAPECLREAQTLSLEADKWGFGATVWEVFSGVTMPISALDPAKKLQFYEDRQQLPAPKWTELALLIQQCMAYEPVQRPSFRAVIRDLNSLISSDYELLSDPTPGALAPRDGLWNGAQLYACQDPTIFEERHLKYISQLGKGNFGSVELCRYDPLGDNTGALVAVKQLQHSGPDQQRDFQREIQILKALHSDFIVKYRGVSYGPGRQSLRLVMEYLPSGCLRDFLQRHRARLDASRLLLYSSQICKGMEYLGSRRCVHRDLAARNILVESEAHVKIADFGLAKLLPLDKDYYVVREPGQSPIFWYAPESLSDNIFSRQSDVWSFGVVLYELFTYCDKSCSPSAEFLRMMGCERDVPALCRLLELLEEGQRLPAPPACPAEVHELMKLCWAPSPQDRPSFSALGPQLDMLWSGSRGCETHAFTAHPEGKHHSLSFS
Briefly: Radioisotope labeling kinase assay (Eurofins), JAK3. The following applies: 1 μM compound; read-out: Inhibitory activity per unit concentration/Activity % JAK3 (h). The method, then: as §1

The target in a further test is T5, Ab1 (h) (Homo sapiens, UniProt P00519).
T5 construct: purchased Eurofins
T5 sequence (P00519 whole entry): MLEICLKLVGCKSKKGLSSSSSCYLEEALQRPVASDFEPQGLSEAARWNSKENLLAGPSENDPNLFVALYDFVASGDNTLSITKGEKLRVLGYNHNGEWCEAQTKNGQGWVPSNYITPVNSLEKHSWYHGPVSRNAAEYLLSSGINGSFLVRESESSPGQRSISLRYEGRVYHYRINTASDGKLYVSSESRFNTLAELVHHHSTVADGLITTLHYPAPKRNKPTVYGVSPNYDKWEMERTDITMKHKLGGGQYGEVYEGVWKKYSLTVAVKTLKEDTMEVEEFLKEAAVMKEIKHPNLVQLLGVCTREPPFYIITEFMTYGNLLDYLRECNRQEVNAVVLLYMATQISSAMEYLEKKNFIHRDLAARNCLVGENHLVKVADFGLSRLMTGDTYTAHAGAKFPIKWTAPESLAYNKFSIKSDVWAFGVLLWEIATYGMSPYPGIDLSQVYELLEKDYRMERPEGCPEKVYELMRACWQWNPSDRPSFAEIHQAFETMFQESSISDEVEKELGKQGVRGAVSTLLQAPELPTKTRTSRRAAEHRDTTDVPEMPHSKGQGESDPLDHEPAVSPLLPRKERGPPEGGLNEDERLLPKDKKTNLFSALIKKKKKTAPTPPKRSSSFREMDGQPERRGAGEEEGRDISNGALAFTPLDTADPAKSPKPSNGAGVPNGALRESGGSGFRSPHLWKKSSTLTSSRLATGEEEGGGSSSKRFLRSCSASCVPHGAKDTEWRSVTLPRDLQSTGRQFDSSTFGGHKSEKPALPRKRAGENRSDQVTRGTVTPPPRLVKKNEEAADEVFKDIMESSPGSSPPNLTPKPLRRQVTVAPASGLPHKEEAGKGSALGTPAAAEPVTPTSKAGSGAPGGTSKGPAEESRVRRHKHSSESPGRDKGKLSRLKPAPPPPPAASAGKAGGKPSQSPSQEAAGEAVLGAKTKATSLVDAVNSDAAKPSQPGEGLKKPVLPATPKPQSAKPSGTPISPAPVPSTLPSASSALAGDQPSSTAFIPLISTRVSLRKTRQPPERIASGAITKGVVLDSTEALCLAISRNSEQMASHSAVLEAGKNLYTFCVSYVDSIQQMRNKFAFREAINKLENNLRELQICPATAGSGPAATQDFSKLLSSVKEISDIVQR
Briefly: Radioisotope labeling kinase assay (Eurofins), Ab1. The following applies: 1 μM compound; read-out: Inhibitory activity per unit concentration/Activity % Ab1 (h). The method, then: as §1

Numbering of substitutions follows the chain as printed.

T1 sequence (Q06187 whole entry): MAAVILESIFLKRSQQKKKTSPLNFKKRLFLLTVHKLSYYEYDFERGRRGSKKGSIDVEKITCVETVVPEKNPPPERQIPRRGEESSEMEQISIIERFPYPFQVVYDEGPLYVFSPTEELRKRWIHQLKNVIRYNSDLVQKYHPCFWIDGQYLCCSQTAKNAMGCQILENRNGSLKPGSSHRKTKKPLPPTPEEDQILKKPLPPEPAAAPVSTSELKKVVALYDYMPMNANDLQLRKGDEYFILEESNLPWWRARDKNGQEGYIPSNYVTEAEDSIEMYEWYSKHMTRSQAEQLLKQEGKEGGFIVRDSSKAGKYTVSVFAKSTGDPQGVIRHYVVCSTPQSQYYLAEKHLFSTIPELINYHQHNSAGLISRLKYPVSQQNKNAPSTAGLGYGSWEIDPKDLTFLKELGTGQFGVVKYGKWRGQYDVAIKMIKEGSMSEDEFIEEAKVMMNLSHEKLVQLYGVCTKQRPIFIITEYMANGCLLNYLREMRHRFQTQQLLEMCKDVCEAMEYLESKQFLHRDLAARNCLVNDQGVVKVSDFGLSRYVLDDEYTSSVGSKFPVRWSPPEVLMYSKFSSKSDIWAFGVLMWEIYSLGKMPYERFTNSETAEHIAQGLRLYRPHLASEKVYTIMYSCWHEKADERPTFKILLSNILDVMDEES

With `CN1C/C=C/COCc2cccc(c2)-c2ccnc(n2)Nc2cc(N)cc(c2)C1` [XIII-2], the activity at 1 µM at BTK (h) amounted to 71%; on Flt3 (D835Y) (h) it was 1%; on Flt3 (h) it was 7%; on JAK3 (h) it was 77%; at Ab1 (h), 57%.

For `N#Cc1ccc(/C=C/C(=O)Nc2cc3cc(c2)Nc2nccc(n2)-c2cccc(c2)COC/C=C/COC3)cc1` [XVI-2], the activity at 1 µM on BTK (h) worked out at 61%; on Flt3 (D835Y) (h), 3%; at Flt3 (h), 12%; on JAK3 (h), 56%; on Ab1 (h), 42%.

For the compound `O=C(/C=C/C(F)(F)F)Nc1cc2cc(c1)Nc1nccc(n1)-c1cccc(c1)COC/C=C/COC2` [XVI-5], the activity at 1 µM on BTK (h) amounted to 88%; at Flt3 (D835Y) (h), 7%; on Flt3 (h), 17%; on JAK3 (h) it was 75%; on Ab1 (h), 57%.

As for `O=C(/C=C/c1cnc[nH]1)Nc1cc2cc(c1)Nc1nccc(n1)-c1cccc(c1)COC/C=C/COC2` [XVI-7], the activity at 1 µM was 45% at BTK (h); -1% at Flt3 (D835Y) (h); 7% at Flt3 (h); 21% at JAK3 (h); 17% on Ab1 (h).

As for `O=C(/C=C/COc1cc2cc(c1)Nc1nccc(n1)-c1cccc(c1)COC/C=C/COC2)N1CCCC1` [XVI-13], the activity at 1 µM is 49% on BTK (h); -2% at Flt3 (D835Y) (h); 24% at Flt3 (h); 34% at JAK3 (h); 39% at Ab1 (h).

Regarding `O=C(/C=C/COc1cc2cc(c1)Nc1nccc(n1)-c1cccc(c1)COC/C=C/COC2)N1CCOCC1` [XVI-14], the activity at 1 µM was 47% on BTK (h); 3% on Flt3 (D835Y) (h); 8% on Flt3 (h); 21% on JAK3 (h); 46% at Ab1 (h).

As to `O=C(/C=C/CNC1CCOC1)Nc1cc2cc(c1)Nc1nccc(n1)-c1cccc(c1)COC/C=C/COC2` (centres unmarked) [XVI-15], the activity at 1 µM at BTK (h) is 12%; on Flt3 (D835Y) (h), 6%; at Flt3 (h), 20%; at JAK3 (h), 6%; on Ab1 (h), 7%.

With `C1=C/COCc2cccc(c2)-c2ccnc(n2)Nc2cc(cc(OC/C=C/CN3CCOCC3)c2)COC/1` [XVI-16], the activity at 1 µM is 48% on BTK (h); -1% on Flt3 (D835Y) (h); 20% on Flt3 (h); 32% at JAK3 (h); 19% on Ab1 (h).

In the case of `NC1CCN(C/C=C/C(=O)Nc2cc3cc(c2)Nc2nccc(n2)-c2cccc(c2)COC/C=C/COC3)C1` (centres unmarked) [XVI-17], the activity at 1 µM at BTK (h) is 17%; on Flt3 (D835Y) (h), 8%; at Flt3 (h), 16%; on JAK3 (h), 4%; at Ab1 (h) it was -4%.

For the compound `O=C(/C=C/CN1CCC(O)C1)Nc1cc2cc(c1)Nc1nccc(n1)-c1cccc(c1)COC/C=C/COC2` (centres unmarked) [XVI-18], the activity at 1 µM is 17% at BTK (h); 4% on Flt3 (D835Y) (h); 19% at Flt3 (h); 8% on JAK3 (h); 2% at Ab1 (h).

As for `O=C(/C=C/CNC1CCOC1)Nc1cc2cc(c1)Nc1nccc(n1)-c1cccc(c1)CCC/C=C/COC2` (centres unmarked) [XVI-19], the activity at 1 µM is 17% at BTK (h); -3% at Flt3 (D835Y) (h); 23% at Flt3 (h); 6% at JAK3 (h); 2% at Ab1 (h).

Turning to `C1=C/COCc2ccc(OC/C=C/CN3CCCC3)c(c2)Nc2nccc(n2)-c2cccc(c2)COC/1` [XVI-20], the activity at 1 µM on BTK (h) was determined as 90%; on Flt3 (D835Y) (h), 33%; at Flt3 (h), 91%; on JAK3 (h), 97%; at Ab1 (h) it was 85%.

With `O=C(/C=C/COc1ccc2cc1Nc1nccc(n1)-c1cccc(c1)COC/C=C/COC2)N1CCCC1` [XVI-21], the activity at 1 µM on BTK (h) came to 78%; at Flt3 (D835Y) (h), 44%; at Flt3 (h) it was 82%; at JAK3 (h), 95%; at Ab1 (h), 92%.
